In US20240280561A1, “COMPOSITIONS AND METHODS FOR TREATING AND/OR IDENTIFYING AN AGENT FOR TREATING INTESTINAL CANCERS” (Dana-Farber Cancer Institute, Inc., priority 2022, published 2024):

B1: recombinant WNT3A: recombinant WNT3A used as a Wnt activator (protein, UniProt P56704 19-352, looked up)
Protein Wnt-3a: SYPIWWSLAVGPQYSSLGSQPILCASIPGLVPKQLRFCRNYVEIMPSVAEGIKIGIQECQHQFRGRRWNCTTVHDSLAIFGPVLDKATRESAFVHAIASAGVAFAVTRSCAEGTAAICGCSSRHQGSPGKGWKWGGCSEDIEFGGMVSREFADARENRPDARSAMNRHNNEAGRQAIASHMHLKCKCHGLSGSCEVKTCWWSQPDFRAIGDFLKDKYDSASEMVVEKHRESRGWVETLRPRYTYFKVPTERDLVYYEASPNFCEPNPETGSFGTRDRTCNVSSHGIDGCDLLCCGRGHNARAERRREKCRCVFHWCCYVSCQECTRVYDVHTCK

Tests used:
[1] = tested on: SOX9 expression in HT-115 cells; test: SOX9 protein expression in CRC cells treated with WNT and TGF-β pathway agents (immunoblot); assay type: cell-based, human; settings: CRC cells (HT-115)
Excerpt: AXIN2, SOX9 and […] (loading control) protein expression in HT-115 (Apc Mutant) cells treated with DMSO, rWNT3A or indicated concentrations of WNT-inhibitor ICG-001 by immunoblot (middle panel). SOX9 and β-actin (loading control) protein expression in HT-115 cells expressing GFP or dominant-negative (dn) TCF4 (right panel); S.E.=short exposure, L.E.=long exposure. […] Protein expression of SOX9 and β-actin (loading control) in HT-115 cells treated with indicated concentration of rTGF-β or TGF-β inhibitor.
Immunoblot analysis was performed as previously described (Wong et al. (2018) Nature medicine 24: 968-977). Briefly, cells were lysed in RIPA buffer supplemented with a protease inhibitor cocktail (Roche). Whole cell extracts were resolved by SDS-PAGE, transferred to PVDF membranes, and probed with indicated primary antibodies. Bound antibodies were detected with horseradish peroxidase (HRP)-conjugated secondary antibodies and chemiluminescent HRP substrate.
The following agents were used: recombinant WNT3A as a Wnt activator and ICG-001 as a Wnt pathway inhibitor, all of which were employed at indicated concentrations and durations.
To examine whether SOX9 is regulated by stem cell and differentiation cues, the impact of the WNT and BMP/TGF-β signaling pathways on SOX9 expression, respectively, was evaluated. […]

[2] = tested on: PROM1 intronic enhancer reporter in HEK293T cells; test: PROM1 enhancer GFP reporter assay; assay type: cell-based; settings: GFP reporter transiently transfected into HEK293T cells
Excerpt: A 537-bp region in intron 1 of PROM1 (hg19, ch4:[…], negative strand) was identified as a putative SOX9-regulated enhancer based on V5-SOX9 and H3K27Ac CHIP data. PCR-amplified products or gene blocks (gBlocks, IDT) consisting of the putative PROM1 enhancer, a minimal promoter, eGFP, and PGK-hygromycin resistance cassette was cloned into the lentiviral LV 1-5 backbone vector using Gibson modular assembly platform (Akama-Garren et al. (2016) Sci Rep 6: 16836). Briefly, PROM1 enhancer was generated as a gBlock by adding the following primer sequencing to the 5′ and 3′ end of the 537-bp region, respectively: 5′→3′ Forward (site 1), […] and 5′→3′ Reverse, […] (site 2); the minimal promoter was PCR amplified from the 7TFP WT CDH1 reporter plasmid using the following primer sequences: 5′→3′ Forward (includes site 2), […] and 5′→3′ Reverse, AGGCCTCGGGATTcctagg[…] (includes site 3); eGFP was generated by adding the following primer sequences to the 5′ and 3′ end, respectively: 5′→3′ Forward (site 3), AAACCGCTGTTcctaggAATCCCGAGGCCT and 5′→3′ Reverse, GACCCGACATTagcgctACAGCTTAAGCGG (site 4); and PGK-hygro was PCR amplified from plenti-PGK-hygro-gateway destination vector using the following primers: 5′→3′ Forward (includes site 4), GACCCGACATTagcgct[…] […]
To investigate the precise mechanism of PROM1 activation, V5-SOX9 and H3K27Ac CHIP-seq data were analyzed. […]

Molecule | SOX9 expression [1] | PROM1 enhancer reporter activity, stimulation [2] [fold]
O=C1[C@H](Cc2ccc(O)cc2)N2C(=O)CCN(C(=O)NCc3ccccc3)[C@H]2CN1Cc1cccc2ccccc12 [ICG-001] | reduced SOX9 expression | –
B1 | – | 3
